Data on 30 compounds can be found in US9174980B2, “Heterocyclic compounds as inhibitors of leukotriene production” (Boehringer Ingelheim International GmbH, priority 2012, dated 2015).

The structures appear in SMILES notation.

In assay [1] the test system is synthesis of LTB4 in human whole blood. Kind of assay: Human whole blood assay (calcimycin-stimulated LTB4 synthesis). It is filed as cell-based. Particulars: Homo sapiens; read-out: Human Whole Blood LTB4 Assay for FLAP (IC50 nM). Summed up: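 Heparinized human whole blood preincubated with compound 15 min at 37 °C, then stimulated with calcimycin (20 μM final) for 30 min at 37 °C. Plasma LTB4 measured after low-speed centrifugation by antibody-based homogeneous time-resolved fluorescence.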

For assay [2], the target named is T1, recombinant human FLAP protein (Homo sapiens, UniProt P20292).
T1 construct: made in house; host or cells: Sf9 insect cells (membrane fraction, 100,000 x g pellet)
T1 sequence (P20292 1-161): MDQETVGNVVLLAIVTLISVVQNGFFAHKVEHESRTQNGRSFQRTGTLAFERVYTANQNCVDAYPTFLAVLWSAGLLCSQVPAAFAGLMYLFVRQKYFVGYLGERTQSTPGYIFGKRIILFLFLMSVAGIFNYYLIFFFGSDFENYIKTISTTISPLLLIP
As to the kind of experiment: FLAP binding assay (Scintillation Proximity Assay, displacement of [125I]L-691,831). Particulars: read-out: Human FLAP SPA Binding (IC50 nM). Summed up:
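Membranes from sf9 cells expressing recombinant human FLAP (5 μg/well) on WGA SPA beads were incubated with compound and 0.08 nM [125I]L-691,831 in Tris pH 7.5 binding buffer, shaken 2 h. Displacement read by scintillation proximity; non-specific binding set with 10 μM unlabelled L-691,831.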

Broadly, the IC50 is the point on the concentration scale where inhibition reaches its midpoint. On to `CN(CCO)C(=O)Cn1cc(C2(c3ccc(-c4cnc(N)nc4)cc3)CCC2)c2ccccc21` [Example 132, 2-(3-{1-[4-(2-aminopyrimidin-5-yl)phenyl]cyclobutyl}-1H-indol-1-yl)-N-(2-hydroxyethyl)-N-methylacetamide], for which the IC50 in assay [1] was > 5000 nM; in assay [2], 7.2 nM.

On to `Nc1ncc(-c2ccc(C3(c4cn(CCOCCO)c5ccccc45)CCC3)cc2)cn1` [Example 120, 2-[2-(3-{1-[4-(2-aminopyrimidin-5-yl)phenyl]cyclobutyl}-1H-indol-1-yl)ethoxy]ethanol], for which the IC50 in assay [1] is > 5000 nM; in assay [2], 4.7 nM.

With `Cn1cc(-c2coc([C@@](C)(c3ccc(-c4cnc(N)nc4)nc3)C3CC3)n2)cn1` [Example 207, 5-(5-{(R)-1-Cyclopropyl-1-[4-(1-methyl-1H-pyrazol-4-yl)-oxazol-2-yl]-ethyl}-pyridin-2-yl)-pyrimidin-2-ylamine], the IC50 in assay [1] worked out at 220 nM; in assay [2] it was 110 nM.

As to `CC(C)C(C)(c1ccc(-c2cnc(N)nc2)nc1)c1cc(-c2cnn(C)c2)on1` (stereo not drawn) [Example 161, 5-(5-{3-methyl-2-[5-(1-methyl-1H-pyrazol-4-yl)-1,2-oxazol-3-yl]butan-2-yl}pyridin-2-yl)pyrimidin-2-amine], the figures for the IC50 in assay [1] and in assay [2] were 160 nM and 8.2 nM, respectively.

As for `COC(=O)c1ccc2c(C(C)(c3ccc(-c4cnc(N)nc4)cc3)C(C)C)c[nH]c2c1` (stereo not drawn) [Example 70, methyl 3-{2-[4-(2-aminopyrimidin-5-yl)phenyl]-3-methylbutan-2-yl}-1H-indole-6-carboxylate], the IC50 was 240 nM in assay [1] and 0.9 nM in assay [2].

As for `CC(C)C(C)(c1ccc(-c2cnc(N)nc2)nc1)c1nc(-c2cnn(C)c2)co1` (stereo not drawn) [Example 168, 5-(5-{3-methyl-2-[4-(1-methyl-1H-pyrazol-4-yl)-1,3-oxazol-2-yl]butan-2-yl}pyridin-2-yl)pyrimidin-2-amine], the IC50 in assay [1] turned out to be 390 nM; in assay [2], 87 nM.

Take `COC(=O)c1cc(-c2cnn(C)c2)c(C2(c3ccc(-c4cnc(N)nc4)cc3)CCC2)[nH]1` [Example 176, methyl 5-{1-[4-(2-aminopyrimidin-5-yl)phenyl]cyclobutyl}-4-(1-methyl-1H-pyrazol-4-yl)-1H-pyrrole-2-carboxylate]: the IC50 in assay [1] came to 2900 nM; in assay [2], 150 nM.

For the compound `Cc1cc(C2(c3c[nH]c4ccccc34)CCC2)ccc1-c1cnc(N)nc1` [Example 151, 5-{4-[1-(1H-indol-3-yl)cyclobutyl]-2-methylphenyl}pyrimidin-2-amine], the IC50 in assay [1] is 890 nM; in assay [2] it was 7 nM.

`Nc1ncc(-c2ccc(C3(c4nnc(-c5cccnc5)o4)CCC3)cc2)cn1` [Example 94, 5-(4-{1-[5-(pyridin-3-yl)-1,3,4-oxadiazol-2-yl]cyclobutyl}phenyl)pyrimidin-2-amine]: the figures for the IC50 in assay [1] and in assay [2] were 2800 nM and 120 nM, respectively.

For the compound `CS(=O)(=O)c1ccc2c(C3(c4ccc(-c5cnc(N)nc5)cc4)CCC3)c[nH]c2c1` [Example 90, 5-(4-{1-[6-(methylsulfonyl)-1H-indol-3-yl]cyclobutyl}phenyl)pyrimidin-2-amine], the IC50 was 170 nM in assay [1] and 0.75 nM in assay [2].

As for `Nc1ncc(-c2ccc(C3(c4c[nH]c5ccccc45)CCC3)cc2)cc1CO` [Example 118, [2-amino-5-[4-[1-(1H-indol-3-yl)cyclobutyl]phenyl]-3-pyridyl]methanol], the IC50 in assay [1] was determined as 69 nM; in assay [2], 1.6 nM.

In the case of `CC(C)C(C)(c1ccc(-c2cnc(N)nc2)cc1)c1nc(N2CCNCC2)no1` (stereo not drawn) [Example 21, 5-[4-[1,2-dimethyl-1-(3-piperazin-1-yl-1,2,4-oxadiazol-5-yl)propyl]phenyl]pyrimidin-2-amine; formic acid], the IC50 in assay [1] came to 1600 nM; in assay [2], 38 nM.

Turning to `CC(C)C(C)(c1ccc(-c2cnc(N)nc2)cc1)c1cn(CC(=O)O)c2ncccc12` (stereo not drawn) [Example 47, (3-{2-[4-(2-aminopyrimidin-5-yl)phenyl]-3-methylbutan-2-yl}-1H-pyrrolo[2,3-b]pyridin-1-yl)acetic acid], the IC50 in assay [1] is > 5000 nM; in assay [2] it was 4.6 nM.

Consider `Nc1ncc(-c2ccc(C3(c4cn(CCO)c5ccccc45)CCC3)cc2)cn1` [Example 111, 2-(3-{1-[4-(2-aminopyrimidin-5-yl)phenyl]cyclobutyl}-1H-indol-1-yl)ethanol], for which the IC50 in assay [1] is > 5000 nM; in assay [2], 1.5 nM.

As to `Cc1ccc(-c2cc(C3(c4ccc(-c5cnc(N)nc5)cc4)CCC3)[nH]n2)cn1` [Example 18, 5-(4-{1-[5-(6-methylpyridin-3-yl)-1H-pyrazol-3-yl]cyclobutyl}phenyl)pyrimidin-2-amine], the values for the IC50 in assay [1] and in assay [2] were 680 nM and 4 nM, respectively.

Regarding `Nc1ncc(-c2ccc(C3(c4nc5ccccc5[nH]4)CCC3)cc2)cn1` [Example 139, 5-{4-[1-(1H-benzimidazol-2-yl)cyclobutyl]phenyl}pyrimidin-2-amine], the IC50 was > 5000 nM in assay [1] and 27 nM in assay [2].

For `CC(C)C(C)(c1ccc(-c2cnc(N)nc2)cc1)c1cn(C)c2ccc(F)cc12` (stereo not drawn) [Example 31, 5-{4-[2-(5-fluoro-1-methyl-1H-indol-3-yl)-3-methylbutan-2-yl]phenyl}pyrimidin-2-amine], the IC50 was 1200 nM in assay [1] and 7.1 nM in assay [2].

Take `CC(C)C(C)(c1ccc(-c2cnc(N)nc2)cc1)c1cn(Cc2ccccn2)c2ccccc12` (stereo not drawn) [Example 28, 5-(4-{3-methyl-2-[1-(pyridin-2-ylmethyl)-1H-indol-3-yl]butan-2-yl}phenyl)pyrimidin-2-amine]: the IC50 in assay [1] came to 610 nM; in assay [2], 3.3 nM.

On to `COc1cccc2[nH]cc(C(C)(c3ccc(-c4cnc(N)nc4)cc3)C(C)C)c12` (stereo not drawn) [Example 57, 5-{4-[2-(4-methoxy-1H-indol-3-yl)-3-methylbutan-2-yl]phenyl}pyrimidin-2-amine], for which the IC50 was 2600 nM in assay [1] and 37 nM in assay [2].

As for `COC(=O)c1ccc(C2(c3ccc(-c4cnc(N)nc4)cc3)CCC2)[nH]1` [Example 167, methyl 5-[1-[4-(2-aminopyrimidin-5-yl)phenyl]cyclobutyl]-1H-pyrrole-2-carboxylate], the IC50 in assay [1] is 3200 nM; in assay [2], 59 nM.

Regarding `CC(C)C(C)(c1ccc(-c2cnc(N)nc2)cc1)c1c[nH]c2ccc(F)cc12` (stereo not drawn) [Example 63, 5-{4-[2-(5-fluoro-1H-indol-3-yl)-3-methylbutan-2-yl]phenyl}pyrimidin-2-amine], the results for the IC50 in assay [1] and in assay [2] were 440 nM and 3 nM, respectively.

Turning to `CN(C)C(=O)Cn1cc(-c2coc(C(C)(c3ccc(-c4cnc(N)nc4)nc3)C3CC3)n2)cn1` (stereo not drawn) [Example 205, 2-[4-(2-{1-[6-(2-Amino-pyrimidin-5-yl)-pyridin-3-yl]-1-cyclopropyl-ethyl}-oxazol-4-yl)-pyrazol-1-yl]-N,N-dimethyl-acetamide], the values for the IC50 in assay [1] and in assay [2] were 1600 nM and 1500 nM, respectively.

For the compound `Nc1ncc(-c2ccc(C3(c4c[nH]c5ccccc45)CCCCC3)cc2)cn1` [Example 89, 5-{4-[1-(1H-indol-3-yl)cyclohexyl]phenyl}pyrimidin-2-amine], the IC50 came out at 2200 nM in assay [1] and 12 nM in assay [2].

For `Nc1ncc(-c2ccc(C3(c4nc5ccccc5[nH]4)CCC3)cn2)cn1` [Example 137, 5-{5-[1-(1H-benzimidazol-2-yl)cyclobutyl]pyridin-2-yl}pyrimidin-2-amine], the IC50 was > 5000 nM in assay [1] and 410 nM in assay [2].

As to `CC(C)C(C)(c1ccc(-c2cnc(N)nc2)cc1)c1cn(C)c2ccccc12` (stereo not drawn) [Example 32, 5-{4-[3-methyl-2-(1-methyl-1H-indol-3-yl)butan-2-yl]phenyl}pyrimidin-2-amine], the IC50 amounted to 650 nM in assay [1] and 3.3 nM in assay [2].

With `CN(C)C(=O)Cn1cc(-c2coc([C@](C)(c3ccc(-c4cnc(N)nc4)cc3)C3CC3)n2)cn1` [Example 196, 2-[4-(2-{(1S)-1-[4-(2-aminopyrimidin-5-yl)phenyl]-1-cyclopropylethyl}-1,3-oxazol-4-yl)-1H-pyrazol-1-yl]-N,N-dimethylacetamide], the figures for the IC50 in assay [1] and in assay [2] were 2000 nM and 380 nM, respectively.

`CC(C)C(C)(c1ccc(-c2cnc(N)nc2)cc1)c1c[nH]c2cc(F)c(F)cc12` (stereo not drawn) [Example 67, 5-{4-[2-(5,6-difluoro-1H-indol-3-yl)-3-methylbutan-2-yl]phenyl}pyrimidin-2-amine]: the IC50 in assay [1] was determined as 340 nM; in assay [2] it was 3 nM.

As to `Cc1cc2c(C3(c4ccc(-c5cnc(N)nc5)cc4)CCC3)c[nH]c2cn1` [Example 141, 5-{4-[1-(5-methyl-1H-pyrrolo[2,3-c]pyridin-3-yl)cyclobutyl]phenyl}pyrimidin-2-amine], the IC50 was found to be 350 nM in assay [1] and 5.8 nM in assay [2].

As to `CC(C)(O)Cn1cc(-c2coc(C(C)(c3ccc(-c4cnc(N)nc4)cc3)C3CC3)n2)cn1` (stereo not drawn) [Example 202, 1-[4-(2-{1-[4-(2-Amino-pyrimidin-5-yl)-phenyl]-1-cyclopropyl-ethyl}-oxazol-4-yl)-pyrazol-1-yl]-2-methyl-propan-2-ol], the IC50 was 230 nM in assay [1] and 69 nM in assay [2].

`Nc1ncc(-c2ccc(C3(c4c[nH]c5c(C(=O)NCCO)cccc45)CCC3)cc2)cn1` [Example 119, 3-{1-[4-(2-aminopyrimidin-5-yl)phenyl]cyclobutyl}-N-(2-hydroxyethyl)-1H-indole-7-carboxamide]: the IC50 in assay [1] stood at 170 nM; in assay [2], 1.5 nM.
